Measurements taken from ChEMBL document CHEMBL1909046, “DrugMatrix in vitro pharmacology data”.

How the values were obtained:
[1] = DRUGMATRIX: Phosphodiesterase PDE4 enzyme inhibition (substrate: [3H]cAMP + cAMP); conditions: u-937, Not Active = under 50% inhibition at 10 µM
[2] = biological target: Mu-type opioid receptor (Homo sapiens, UniProt P35372); experiment: DRUGMATRIX: Opiate mu (OP3, MOP) radioligand binding (ligand: [3H] Diprenorphine); assay type: cell membranes, CHO-K1, Membrane; conditions: cho-k1; Not Active = under 50% inhibition at 10 µM
[3] = biological target: T1, Neuropeptide Y receptor type 1 (Homo sapiens, UniProt P25929); assay type: cell membranes, Membrane; conditions: sk-n-mc; also: in other assays of this panel Not Active means under 50% inhibition at 10 µM
T1 sequence (P25929 whole entry): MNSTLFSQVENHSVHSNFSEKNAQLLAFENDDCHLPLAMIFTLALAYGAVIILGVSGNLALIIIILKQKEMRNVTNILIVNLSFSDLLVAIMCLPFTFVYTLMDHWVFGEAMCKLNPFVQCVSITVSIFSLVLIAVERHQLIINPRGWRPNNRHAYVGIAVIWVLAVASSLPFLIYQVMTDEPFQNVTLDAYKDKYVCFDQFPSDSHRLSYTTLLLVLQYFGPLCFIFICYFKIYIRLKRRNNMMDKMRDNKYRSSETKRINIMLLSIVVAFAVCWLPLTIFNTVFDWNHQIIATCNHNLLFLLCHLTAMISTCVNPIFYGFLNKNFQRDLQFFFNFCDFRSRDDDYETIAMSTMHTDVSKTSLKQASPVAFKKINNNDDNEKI

[4] = biological target: Histamine H2 receptor (Homo sapiens, UniProt P25021); assay type: cell membranes, CHO-K1, Membrane; conditions: cho-k1; also: in other assays of this panel Not Active means under 50% inhibition at 10 µM
[5] = DRUGMATRIX: Glutamate, NMDA, Agonism radioligand binding (ligand: [3H] CGP-39653); assay type: cell membranes, Rattus norvegicus, Wistar, Cerebral cortex, Membrane; conditions: Not Active = under 50% inhibition at 10 µM
[6] = biological target: T2, Muscarinic acetylcholine receptor M4 (Homo sapiens, UniProt P08173); assay type: cell membranes, CHO-K1, Membrane; conditions: cho-k1; also: in other assays of this panel Not Active means under 50% inhibition at 10 µM
T2 sequence (P08173 whole entry): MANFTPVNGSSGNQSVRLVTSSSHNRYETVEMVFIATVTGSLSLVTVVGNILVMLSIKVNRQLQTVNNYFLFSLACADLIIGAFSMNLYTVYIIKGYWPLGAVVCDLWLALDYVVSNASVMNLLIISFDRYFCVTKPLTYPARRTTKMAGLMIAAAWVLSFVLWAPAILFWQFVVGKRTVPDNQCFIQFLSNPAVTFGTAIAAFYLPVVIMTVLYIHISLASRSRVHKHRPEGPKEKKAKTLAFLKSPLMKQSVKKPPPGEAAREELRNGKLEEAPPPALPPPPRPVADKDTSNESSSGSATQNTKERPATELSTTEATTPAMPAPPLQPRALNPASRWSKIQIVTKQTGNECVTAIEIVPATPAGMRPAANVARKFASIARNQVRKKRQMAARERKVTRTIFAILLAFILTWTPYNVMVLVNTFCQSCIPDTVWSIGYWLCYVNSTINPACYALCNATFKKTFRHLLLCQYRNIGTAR

[7] = biological target: T3, Substance-K receptor (Homo sapiens, UniProt P21452); assay type: cell membranes, CHO, Membrane; conditions: cho; also: in other assays of this panel Not Active means under 50% inhibition at 10 µM
T3 sequence (P21452 whole entry): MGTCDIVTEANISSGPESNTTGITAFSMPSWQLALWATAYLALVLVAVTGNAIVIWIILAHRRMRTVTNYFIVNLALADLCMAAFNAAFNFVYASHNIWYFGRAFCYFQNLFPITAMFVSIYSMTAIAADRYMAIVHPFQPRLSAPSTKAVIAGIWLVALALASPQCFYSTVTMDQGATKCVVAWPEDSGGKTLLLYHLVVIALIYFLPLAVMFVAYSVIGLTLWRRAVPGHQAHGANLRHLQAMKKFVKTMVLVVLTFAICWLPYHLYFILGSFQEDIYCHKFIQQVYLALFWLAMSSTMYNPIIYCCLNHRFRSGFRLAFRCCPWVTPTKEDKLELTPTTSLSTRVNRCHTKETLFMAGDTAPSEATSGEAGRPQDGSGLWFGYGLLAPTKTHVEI

[8] = DRUGMATRIX: Nicotinic Acetylcholine radioligand binding (ligand: [125I] Epibatidine); assay type: cell membranes, Membrane; conditions: imr-32; Not Active = under 50% inhibition at 10 µM
[9] = DRUGMATRIX: Serotonin (5-Hydroxytryptamine) 5-HT3 radioligand binding (ligand: [3H] GR-65630); assay type: cell membranes, Membrane; conditions: hek293; Not Active = under 50% inhibition at 10 µM
[10] = biological target: Sodium-dependent dopamine transporter (Homo sapiens, UniProt Q01959); experiment: DRUGMATRIX: Dopamine Transporter radioligand binding (ligand: [125I] RTI-55); assay type: cell membranes, CHO-K1, Membrane; conditions: cho-k1; Not Active = under 50% inhibition at 10 µM
[11] = biological target: Tyrosine-protein kinase Fyn (Homo sapiens, UniProt P06241); experiment: biochemical; assay type: cell-based, Insect cells; conditions: insect cells
[12] = biological target: Carbonic anhydrase 2 (Homo sapiens, UniProt P00918); experiment: DRUGMATRIX: Carbonic Anhydrase II enzyme inhibition (substrate: 4-Nitrophenyl acetate (4-NPA)); assay type: tissue-based, Erythrocyte; conditions: erythrocyte; Not Active = under 50% inhibition at 10 µM
[13] = biological target: T4, Muscarinic acetylcholine receptor M5 (Homo sapiens, UniProt P08912); assay type: cell membranes, CHO-K1, Membrane; conditions: cho-k1; also: in other assays of this panel Not Active means under 50% inhibition at 10 µM
T4 sequence (P08912 whole entry): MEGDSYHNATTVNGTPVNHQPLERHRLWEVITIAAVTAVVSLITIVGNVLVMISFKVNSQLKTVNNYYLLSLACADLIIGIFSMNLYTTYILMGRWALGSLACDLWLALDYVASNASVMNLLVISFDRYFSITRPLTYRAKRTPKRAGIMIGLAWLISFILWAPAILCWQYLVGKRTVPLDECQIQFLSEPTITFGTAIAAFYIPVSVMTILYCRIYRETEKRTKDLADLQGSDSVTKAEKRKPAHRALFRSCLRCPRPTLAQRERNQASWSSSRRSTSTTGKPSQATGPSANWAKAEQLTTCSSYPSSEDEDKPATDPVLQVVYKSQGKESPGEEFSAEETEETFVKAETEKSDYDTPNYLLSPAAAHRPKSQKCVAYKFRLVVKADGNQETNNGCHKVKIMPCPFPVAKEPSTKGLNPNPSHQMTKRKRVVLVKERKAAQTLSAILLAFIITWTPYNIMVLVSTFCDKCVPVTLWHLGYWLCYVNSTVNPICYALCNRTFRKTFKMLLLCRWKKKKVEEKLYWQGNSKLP

Sequence of Mu-type opioid receptor (P35372 whole entry): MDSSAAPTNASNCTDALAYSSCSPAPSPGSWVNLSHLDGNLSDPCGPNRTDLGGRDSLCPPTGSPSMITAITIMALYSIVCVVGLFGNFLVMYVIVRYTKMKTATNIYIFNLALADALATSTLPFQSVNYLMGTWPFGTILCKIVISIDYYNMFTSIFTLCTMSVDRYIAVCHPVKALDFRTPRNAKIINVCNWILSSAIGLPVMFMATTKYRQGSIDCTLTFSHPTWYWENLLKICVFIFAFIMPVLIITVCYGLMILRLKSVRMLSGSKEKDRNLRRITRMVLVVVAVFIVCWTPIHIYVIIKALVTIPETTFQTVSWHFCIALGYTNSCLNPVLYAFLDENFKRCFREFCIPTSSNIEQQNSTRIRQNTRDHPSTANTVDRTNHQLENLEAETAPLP
Sequence of Tyrosine-protein kinase Fyn (P06241 whole entry): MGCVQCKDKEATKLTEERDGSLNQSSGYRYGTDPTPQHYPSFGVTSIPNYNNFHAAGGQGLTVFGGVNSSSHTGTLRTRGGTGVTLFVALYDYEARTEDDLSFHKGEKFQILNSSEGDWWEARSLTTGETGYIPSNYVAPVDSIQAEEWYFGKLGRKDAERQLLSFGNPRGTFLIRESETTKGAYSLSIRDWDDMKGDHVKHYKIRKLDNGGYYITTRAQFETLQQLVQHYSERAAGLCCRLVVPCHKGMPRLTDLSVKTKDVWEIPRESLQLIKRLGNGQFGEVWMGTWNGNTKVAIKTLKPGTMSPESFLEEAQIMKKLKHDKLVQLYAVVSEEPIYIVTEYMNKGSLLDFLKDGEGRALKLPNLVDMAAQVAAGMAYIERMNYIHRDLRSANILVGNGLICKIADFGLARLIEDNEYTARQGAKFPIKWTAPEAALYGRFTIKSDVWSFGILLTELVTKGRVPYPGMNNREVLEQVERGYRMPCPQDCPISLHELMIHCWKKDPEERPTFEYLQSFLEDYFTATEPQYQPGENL
Sequence of Histamine H2 receptor (P25021 whole entry): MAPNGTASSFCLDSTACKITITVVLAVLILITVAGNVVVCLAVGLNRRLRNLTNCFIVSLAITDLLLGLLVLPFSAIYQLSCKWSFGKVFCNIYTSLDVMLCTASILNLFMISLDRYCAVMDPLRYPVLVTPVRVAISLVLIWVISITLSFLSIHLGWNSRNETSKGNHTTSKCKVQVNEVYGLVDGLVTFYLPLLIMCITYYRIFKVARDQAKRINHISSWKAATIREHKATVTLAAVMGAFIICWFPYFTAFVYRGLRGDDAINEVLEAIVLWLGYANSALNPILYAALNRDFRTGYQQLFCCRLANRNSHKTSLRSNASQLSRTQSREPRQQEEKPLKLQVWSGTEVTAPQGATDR
Sequence of Sodium-dependent dopamine transporter (Q01959 whole entry): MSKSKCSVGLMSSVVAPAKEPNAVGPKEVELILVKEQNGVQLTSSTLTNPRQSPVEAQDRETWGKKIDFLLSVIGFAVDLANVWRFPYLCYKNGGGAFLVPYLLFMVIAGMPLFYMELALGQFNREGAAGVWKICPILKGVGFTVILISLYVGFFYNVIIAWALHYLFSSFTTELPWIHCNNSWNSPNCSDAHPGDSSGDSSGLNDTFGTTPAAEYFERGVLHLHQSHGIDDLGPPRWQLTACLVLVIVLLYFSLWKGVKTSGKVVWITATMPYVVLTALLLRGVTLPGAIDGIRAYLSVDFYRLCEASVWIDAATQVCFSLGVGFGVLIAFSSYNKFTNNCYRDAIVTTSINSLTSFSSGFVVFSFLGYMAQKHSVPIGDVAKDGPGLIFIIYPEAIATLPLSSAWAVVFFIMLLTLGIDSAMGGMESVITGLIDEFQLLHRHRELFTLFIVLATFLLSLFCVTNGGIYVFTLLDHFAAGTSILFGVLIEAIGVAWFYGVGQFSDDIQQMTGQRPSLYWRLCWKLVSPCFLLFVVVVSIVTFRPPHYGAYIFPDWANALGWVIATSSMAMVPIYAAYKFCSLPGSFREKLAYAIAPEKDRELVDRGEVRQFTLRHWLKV

Row | SMILES | IC50 ([1]; read-out: IC50) [µM] | IC50 [2] | IC50 [3] | IC50 [4] | IC50 [5] | Ki [5] | IC50 [6] | IC50 [7] | IC50 [8] | Ki [8] | IC50 [9] | Ki [9] | IC50 [10] | IC50 [11] | IC50 [12] | IC50 [13] | IC50 [1] | Ki [1]
1 | COC(=O)C1=C(C)NC(C)=C(C(=O)OC)C1c1ccccc1[N+](=O)[O-] [NIFEDIPINE] | 44.2 | Not Active | Not Active | Not Active | Not Active | Not Active | Not Active | Not Active | Not Active | Not Active | Not Active | Not Active | Not Active | Not Active | Not Active | Not Active | – | –
2 | CC(=O)[C@H]1CC[C@H]2[C@@H]3CCC4=CC(=O)CC[C@]4(C)[C@H]3CC[C@]12C [PROGESTERONE] | – | Not Active | Not Active | Not Active | Not Active | Not Active | Not Active | Not Active | Not Active | Not Active | Not Active | Not Active | Not Active | Not Active | Not Active | Not Active | Not Active | Not Active
3 | NC(=O)c1ncn([C@@H]2O[C@H](CO)[C@@H](O)[C@H]2O)n1 [RIBAVIRIN] | – | Not Active | Not Active | Not Active | Not Active | Not Active | Not Active | Not Active | Not Active | Not Active | Not Active | Not Active | Not Active | Not Active | Not Active | Not Active | Not Active | Not Active
4 | CC[C@H]1OC(=O)[C@H](C)[C@@H](O[C@H]2C[C@@](C)(OC)[C@@H](O)[C@H](C)O2)[C@H](C)[C@@H](O[C@@H]2O[C@H](C)C[C@H](N(C)C)[C@H]2O)[C@](C)(O)C[C@@H](C)/C(=N\OCOCCOC)[C@H](C)[C@@H](O)[C@]1(C)O [ROXITHROMYCIN] | – | Not Active | Not Active | Not Active | Not Active | Not Active | Not Active | Not Active | Not Active | Not Active | Not Active | Not Active | Not Active | Not Active | Not Active | Not Active | Not Active | Not Active
5 | NC(=O)c1ccccc1O [SALICYLAMIDE] | – | Not Active | Not Active | Not Active | Not Active | Not Active | Not Active | Not Active | Not Active | Not Active | Not Active | Not Active | Not Active | Not Active | Not Active | Not Active | Not Active | Not Active
6 | Cc1ncc([N+](=O)[O-])n1CC(C)O (stereo not given) [SECNIDAZOLE] | – | Not Active | Not Active | Not Active | Not Active | Not Active | Not Active | Not Active | Not Active | Not Active | Not Active | Not Active | Not Active | Not Active | Not Active | Not Active | Not Active | Not Active
7 | CN[C@@H]1[C@@H](O)[C@@H](O[C@@H]2[C@@H](O)[C@H](O[C@H]3OC(CN)=CC[C@H]3N)[C@@H](N)C[C@H]2N)OC[C@]1(C)O [SISOMICIN] | – | Not Active | Not Active | Not Active | Not Active | Not Active | Not Active | Not Active | Not Active | Not Active | Not Active | Not Active | Not Active | Not Active | Not Active | Not Active | Not Active | Not Active
8 | CC(=O)S[C@@H]1CC2=CC(=O)CC[C@]2(C)[C@H]2CC[C@@]3(C)[C@@H](CC[C@@]34CCC(=O)O4)[C@H]12 [SPIRONOLACTONE] | – | Not Active | Not Active | Not Active | Not Active | Not Active | Not Active | Not Active | Not Active | Not Active | Not Active | Not Active | Not Active | Not Active | Not Active | Not Active | Not Active | Not Active
